Results taken from patent US6653300B2, “Pyrazole compounds useful as protein kinase inhibitors” (Vertex Pharmaceuticals Incorporated, priority 2000, dated 2003).
Read-outs that look alike come from different tables or passages of the source.

Experiments:
[1] = target: T1, Aurora-2 (Homo sapiens, UniProt O14965); test: Ki determination for the inhibition of Aurora-2 (coupled enzyme assay); assay type: biochemical; details: 70 nM Aurora-2, 30° C.
T1 sequence (O14965 1-403): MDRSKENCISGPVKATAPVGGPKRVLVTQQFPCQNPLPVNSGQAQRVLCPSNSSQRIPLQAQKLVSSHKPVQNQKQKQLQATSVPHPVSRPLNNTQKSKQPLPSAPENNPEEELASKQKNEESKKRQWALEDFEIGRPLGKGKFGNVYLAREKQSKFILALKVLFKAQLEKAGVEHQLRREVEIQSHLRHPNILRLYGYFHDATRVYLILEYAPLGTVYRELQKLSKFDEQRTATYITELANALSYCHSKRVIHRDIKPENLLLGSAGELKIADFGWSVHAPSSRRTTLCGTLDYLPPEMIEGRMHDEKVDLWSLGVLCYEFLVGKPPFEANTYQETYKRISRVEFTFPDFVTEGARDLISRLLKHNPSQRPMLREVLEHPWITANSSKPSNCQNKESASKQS
Procedure, shortened: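 Ki came from reaction rates plotted against inhibitor concentration, with rates taken as A340 decrease over 5 min at 30° C. Enzyme (70 nM final) was added after 10 min compound preincubation; stock buffer held […], 800 μM LRRASLG, PK/LDH coupling, pH 7.5.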

[2] = target: T2, GSK-3β (AA 1-420) (Homo sapiens, UniProt P49841); test: Ki determination for the inhibition of GSK-3 (coupled enzyme system); assay type: biochemical; details: 20 μM ATP, 20 nM GSK-3β, 30° C.
T2 construct: GSK-3β (AA 1-420)
Procedure, shortened: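 GSK-3β (AA 1-420, 20 nM) was run in a pyruvate kinase/LDH-coupled NADH assay in 100 mM HEPES pH 7.5, 10 mM MgCl2, 25 mM NaCl, 1 mM DTT, 1.5% DMSO, with 300 μM phosphopeptide substrate. Compound (0.002–30 μM) was preincubated 10 min at 30° C, then 20 μM ATP was added.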

[3] = target: CDK-2/Cyclin A (Homo sapiens, UniProt P24941); test: CDK-2 inhibition assay (coupled enzyme assay); assay type: biochemical; details: 25 nM CDK-2/Cyclin A, 30° C.
Method: Compounds were screened in the following manner for their ability to inhibit CDK-2 using a standard coupled enzyme assay (Fox et al (1998) Protein Sci 7, 2249).
To an assay stock buffer solution containing 0.1M HEPES 7.5, 10 mM MgCl2, 1 mM DTT, 25 mM NaCl, 2.5 mM phosphoenolpyruvate, […], 30 mg/ml pyruvate kinase, 10 mg/ml lactate dehydrogenase, 100 mM ATP, and 100 μM peptide ([…], American Peptide, Sunnyvale, Calif.) was added a DMSO solution of a compound of the present invention to a final concentration of 30 μM. The resulting mixture was incubated at 30° C. for 10 min.
The reaction was initiated by the addition of 10 μL of CDK-2/Cyclin A stock solution to give a final concentration of 25 nM in the assay. The rates of reaction were obtained by monitoring absorbance at 340 nm over a 5-minute read time at 30° C. using a BioRad Ultramark plate reader (Hercules, Calif.). The Ki values were determined from the rate data as a function of inhibitor concentration.

[4] = target: T3, human Src kinase (Homo sapiens, UniProt P12931); test: SRC inhibition assay (radioactivity-based or spectrophotometric assay); assay type: biochemical; details: recombinant human Src kinase, assay A or B
T3 construct: full length recombinant human Src kinase (from Upstate Biotechnology, cat. no. 14-117); purchased Upstate Biotechnology 14-117; host or cells: baculo viral cells
Method: The compounds were evaluated as inhibitors of human Src kinase using either a radioactivity-based assay or spectrophotometric assay. The compounds were assayed as inhibitors of full length recombinant human Src kinase (from Upstate Biotechnology, cat. no. 14-117) expressed and purified from baculo viral cells. […] P-0275). […] In a typical assay, all the reaction components with the exception of ATP were pre-mixed and aliquoted into assay plate wells. […] The assay plate was incubated at 30° C. for 10 min before initiating the reaction with ^33P-ATP. After 20 min of reaction, the reactions were quenched with 150 μl of 10% trichloroacetic acid (TCA) containing 20 mM Na3PO4. The quenched samples were then transferred to a 96-well filter plate (Whatman, UNI-Filter GF/F Glass Fiber Filter, cat no. 7700-3310) installed on a filter plate vacuum manifold. Filter plates were washed four times with 10% TCA containing 20 mM Na3PO4 and then 4 times with methanol. 200 μl of scintillation fluid was then added to each well. The plates were sealed and the amount of radioactivity associated with the filters was quantified on a TopCount scintillation counter. The radioactivity incorporated was plotted as a function of the inhibitor concentration. The data was fitted to a competitive inhibition kinetics model to get the Ki for the compound. The ADP produced from ATP by the human recombinant Src kinase-catalyzed phosphorylation of poly Glu-Tyr substrate was quanitified using a coupled enzyme assay (Fox et al (1998) Protein Sci 7, 2249). In this assay one molecule of NADH is oxidised to NAD for every molecule of ADP produced in the kinase reaction. The disappearance of NADH can be conveniently followed at 340 nm. […] In a typical assay, all the reaction components with the exception of ATP were pre-mixed and aliquoted into assay plate wells. […] The absorbance change at 340 nm with time, the rate of the reaction, was monitored on a molecular devices plate reader. The data of rate as a function of the inhibitor concentration was fitted to competitive inhibition kinetics model to get the Ki for the compound.

T3 sequence (P12931 whole entry): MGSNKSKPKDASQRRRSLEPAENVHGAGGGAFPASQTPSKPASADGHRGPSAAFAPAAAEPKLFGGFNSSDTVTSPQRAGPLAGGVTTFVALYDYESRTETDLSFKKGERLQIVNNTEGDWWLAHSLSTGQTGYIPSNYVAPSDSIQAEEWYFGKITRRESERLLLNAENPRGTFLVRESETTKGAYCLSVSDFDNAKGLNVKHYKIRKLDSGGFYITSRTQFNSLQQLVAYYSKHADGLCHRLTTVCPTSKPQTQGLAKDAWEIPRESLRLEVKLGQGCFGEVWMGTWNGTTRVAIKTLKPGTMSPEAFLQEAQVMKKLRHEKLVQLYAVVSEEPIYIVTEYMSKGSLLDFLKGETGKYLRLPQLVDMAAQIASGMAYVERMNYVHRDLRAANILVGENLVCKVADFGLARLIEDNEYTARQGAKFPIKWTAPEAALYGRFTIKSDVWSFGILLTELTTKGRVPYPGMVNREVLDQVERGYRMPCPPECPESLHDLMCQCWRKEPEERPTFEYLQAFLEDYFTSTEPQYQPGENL
T2 sequence (P49841 whole entry, the tested form may be a part): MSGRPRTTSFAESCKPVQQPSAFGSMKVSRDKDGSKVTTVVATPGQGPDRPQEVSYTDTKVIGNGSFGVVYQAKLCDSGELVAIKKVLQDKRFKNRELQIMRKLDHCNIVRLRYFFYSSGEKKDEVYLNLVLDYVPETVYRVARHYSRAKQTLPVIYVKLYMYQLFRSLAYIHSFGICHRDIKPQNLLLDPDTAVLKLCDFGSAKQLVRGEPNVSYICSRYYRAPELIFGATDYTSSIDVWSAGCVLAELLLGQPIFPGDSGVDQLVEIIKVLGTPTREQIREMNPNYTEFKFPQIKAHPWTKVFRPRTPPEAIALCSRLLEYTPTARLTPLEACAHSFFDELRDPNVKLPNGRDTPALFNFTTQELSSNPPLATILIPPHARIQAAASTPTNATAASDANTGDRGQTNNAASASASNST

Row | SMILES | Ki [1] | Ki [2] | melting point | Ki ([4]; read-out: Ki value on SRC) | Ki ([4]; read-out: Ki value for SRC) | Ki [3]
1 | CC(=O)Nc1ccc(Sc2nc(Nc3cc(C)[nH]n3)c3ccccc3n2)cc1 [IIa-38, [2-(4-Acetamidophenylsulfanyl)-quinazolin-4-yl]-(5-methyl-2H-pyrazol-3-yl)-amine] | < 0.1 µM | 0.1 to 1 µM | – | – | – | 1 to 20 µM
2 | Cc1ccc(Nc2nc(Nc3cc(C4CC4)[nH]n3)c3ccccc3n2)cc1C [IIc-33, (5-Cyclopropyl-2H-pyrazol-3-yl)-[2-(3,4-dimethylphenylamino)-quinazolin-4-yl]-amine] | < 0.1 µM | 0.1 to 1 µM | 245 to 246 °C | < 0.1 µM | – | –
3 | c1ccc(OCCNc2nc(Nc3cc(C4CC4)[nH]n3)c3ccccc3n2)cc1 [IIc-34, (5-Cyclopropyl-2H-pyrazol-3-yl)-[2-(2-phenoxyethylamino)-quinazolin-4-yl]-amine] | < 0.1 µM | 0.1 to 1 µM | 203 °C | < 0.1 µM | – | –
4 | c1csc(CNc2nc(Nc3cc(C4CC4)[nH]n3)c3ccccc3n2)c1 [IIc-35, (5-Cyclopropyl-2H-pyrazol-3-yl)-[2-(thiophen-2-methylamino)-quinazolin-4-yl]-amine] | < 0.1 µM | < 0.1 µM | 212 °C | < 0.1 µM | – | –
5 | c1cncc(CNc2nc(Nc3cc(C4CC4)[nH]n3)c3ccccc3n2)c1 [IIc-38, (5-Cyclopropyl-2H-pyrazol-3-yl)-[2-(pyridin-3-ylmethylamino)-quinazolin-4-yl]-amine] | < 0.1 µM | < 0.1 µM | 193 °C | < 0.1 µM | – | –
6 | CCc1cccc(Nc2nc(Nc3cc(C4CC4)[nH]n3)c3ccccc3n2)c1 [IIc-41, (5-Cyclopropyl-2H-pyrazol-3-yl)-[2-(3-ethylphenylamino)-quinazolin-4-yl]-amine] | < 0.1 µM | 0.1 to 1 µM | 186 to 188 °C | < 0.1 µM | – | –
7 | COc1ccc(Nc2nc(Nc3cc(C4CC4)[nH]n3)c3ccccc3n2)cc1OC [IIc-43, (5-Cyclopropyl-2H-pyrazol-3-yl)-[2-(3,4-dimethoxyphenylamino)-quinazolin-4-yl]-amine] | < 0.1 µM | 0.1 to 1 µM | 144 °C | < 0.1 µM | – | –
8 | COc1cccc(Nc2nc(Nc3cc(C4CC4)[nH]n3)c3ccccc3n2)c1 [IIc-44, (5-Cyclopropyl-2H-pyrazol-3-yl)-[2-(3-methoxyphenylamino)-quinazolin-4-yl]-amine] | < 0.1 µM | 0.1 to 1 µM | 207 to 211 °C | < 0.1 µM | – | –
9 | Cc1ccc(Cl)c(Nc2nc(Nc3cc(C)[nH]n3)c3ccccc3n2)c1 [IIc-51, [2-(2-Chloro-5-methylphenylamino)-quinazolin-4-yl]-(5-methyl-2H-pyrazol-3-yl)-amine] | < 0.1 µM | 0.1 to 1 µM | 246 to 247 °C | < 0.1 µM | – | –
10 | Cc1cc(Nc2nc(Nc3ccc(N)cc3)nc3ccccc23)n[nH]1 [IIc-66, [2-(4-Aminophenylamino)-quinazolin-4-yl]-(5-methyl-2H-pyrazol-3-yl)-amine] | 0.1 to 1 µM | 0.1 to 1 µM | 164 to 167 °C | – | 1 to 6 µM | –
11 | Cc1cc(Nc2nc(Nc3ccc(NC(=O)C(C)C)cc3)nc3ccccc23)n[nH]1 [IIc-68, [2-(4-Isobutyrylamino-phenylamino)-quinazolin-4-yl]-(5-methyl-2H-pyrazol-3-yl)-amine] | < 0.1 µM | 1 to 7 µM | 176 to 179 °C | – | 1 to 6 µM | –
12 | c1ccc(OCc2nc(Nc3cc(C4CC4)[nH]n3)c3ccccc3n2)cc1 [IId-1, (5-Cyclopropyl-2H-pyrazol-3-yl)-(2-phenoxymethyl-quinazolin-4-yl)-amine] | < 0.1 µM | < 0.1 µM | 265 to 267 °C | < 0.1 µM | – | –
13 | c1ccc(COCc2nc(Nc3cc(C4CC4)[nH]n3)c3ccccc3n2)cc1 [IId-2, (2-Benzyloxymethyl-quinazolin-4-yl)-(5-cyclopropyl-2H-pyrazol-3-yl)-amine] | < 0.1 µM | 0.1 to 1 µM | 211 to 213 °C | < 0.1 µM | – | –

The next lines start with results.

Row | Ki [1] | Ki [2] | melting point | Ki ([4]; read-out: Ki value on SRC) | Ki ([4]; read-out: Ki value for SRC) | SMILES | Ki [3]
14 | < 0.1 µM | < 0.1 µM | 283 to 284 °C | < 0.1 µM | – | Cc1cccc(Oc2nc(Nc3cc(C4CC4)[nH]n3)c3ccccc3n2)c1 [IIb-5, (5-Cyclopropyl-2H-pyrazol-3-yl)-[2-(3-methylphenoxy)-quinazolin-4-yl]-amine] | –
15 | < 0.1 µM | < 0.1 µM | 177 °C | < 0.1 µM | – | CN(Cc1cccnc1)c1nc(Nc2cc(C3CC3)[nH]n2)c2ccccc2n1 [IIc-3] | –
16 | < 0.1 µM | < 0.1 µM | 211 °C | < 0.1 µM | – | Cc1cc(Nc2nc(NCC3CCCCC3)nc3ccccc23)n[nH]1 [IIc-8, (2-Cyclohexylmethylamino-quinazolin-4-yl)-(5-methyl-2H-pyrazol-3-yl)-amine] | –
17 | < 0.1 µM | < 0.1 µM | 218 °C | < 0.1 µM | – | Cc1cc(Nc2nc(NCc3cccnc3)nc3ccccc23)n[nH]1 [IIc-10, (5-Methyl-2H-pyrazol-3-yl)-[2-(pyridin-3-ylmethylamino)-quinazolin-4-yl]-amine] | –
18 | < 0.1 µM | 0.1 to 1 µM | 117 °C | < 0.1 µM | – | Cc1cccc(Nc2nc(Nc3cc(C4CC4)[nH]n3)c3ccccc3n2)c1 [IIc-19, (5-Cyclopropyl-2H-pyrazol-3-yl)-[2-(3-methylphenylamino)-quinazolin-4-yl]-amine] | –
19 | < 0.1 µM | < 0.1 µM | 199 to 204 °C | < 0.1 µM | – | c1ccc2c(Nc3cc(C4CC4)[nH]n3)nc(Nc3ccc4c(c3)CCC4)nc2c1 [IIc-21, (5-Cyclopropyl-2H-pyrazol-3-yl)-[2-(indan-5-ylamino)-quinazolin-4-yl]-amine] | –
20 | < 0.1 µM | 0.1 to 1 µM | > 188 °C (dec.) | < 0.1 µM | – | CC(=O)Nc1ccc(Nc2nc(Nc3cc(C4CC4)[nH]n3)c3ccccc3n2)cc1C [IIc-23, [2-(4-Acetamido-3-methylphenylamino)-quinazolin-4-yl]-(5-cyclopropyl-2H-pyrazol-3-yl)-amine] | –
21 | < 0.1 µM | < 0.1 µM | 244 to 246 °C | < 0.1 µM | – | Cc1cc(Nc2nc(Nc3cc(C4CC4)[nH]n3)c3ccccc3n2)ccc1Cl [IIc-24, [2-(4-Chloro-3-methylphenylamino)-quinazolin-4-yl]-(5-cyclopropyl-2H-pyrazol-3-yl)-amine] | –
